# Laboratory results: paper PMC8599359 (Molecular Neurobiology, 2021)
# Biological target: MMP-9 (Homo sapiens, UniProt P14780)
# Assay: Fluorometric substrate assay (MMP inhibitor profiling kit)
# Format: biochemical
# Parameters: purchased Enzo life sciences BML-AK308
# Description: Kit contained a panel of ten MMPs and a quenched fluorogenic substrate OMNIMMP® RED. Composition of a quenched fluorogenic substrate was TQ3-GABA-Pro-Cha-Abu-Smc-His-Ala-Dab(6’-TAMRA)-Ala-Lys-NH2 [TQ3 = quencher; GABA = 4-aminobutyric acid; Cha = L-cyclohexylalanine; Abu = 2-aminobutyric acid; Smc = S-methyl-L-cysteine; Dab = 2,4-diaminobutyric acid; 6’-TAMRA = 6’-tetramethylrhodamine]. Experiment was performed as per instructions provided in the manufacturer’s manual. The assays were performed in a 96-well, black, flat, microplate format. The compound NNGH was provided as a prototypic control inhibitor. […] Untreated MMPs were used as control. The experiment was performed in biological triplicates. After 60-min incubation, fluorogenic substrate OMNIMMP® RED was added to each reaction/well to start the reaction. The plate was continuously read at Ex/Em = 545/576 nm (cutoff at 570 nm) for 30 min with 1-min time intervals at constant temperature, 37 °C, using Molecular Devices SpectraMax M3 plate reader with SoftMax Pro 6.2 software.
# Sequence of MMP-9 (P14780 94-707): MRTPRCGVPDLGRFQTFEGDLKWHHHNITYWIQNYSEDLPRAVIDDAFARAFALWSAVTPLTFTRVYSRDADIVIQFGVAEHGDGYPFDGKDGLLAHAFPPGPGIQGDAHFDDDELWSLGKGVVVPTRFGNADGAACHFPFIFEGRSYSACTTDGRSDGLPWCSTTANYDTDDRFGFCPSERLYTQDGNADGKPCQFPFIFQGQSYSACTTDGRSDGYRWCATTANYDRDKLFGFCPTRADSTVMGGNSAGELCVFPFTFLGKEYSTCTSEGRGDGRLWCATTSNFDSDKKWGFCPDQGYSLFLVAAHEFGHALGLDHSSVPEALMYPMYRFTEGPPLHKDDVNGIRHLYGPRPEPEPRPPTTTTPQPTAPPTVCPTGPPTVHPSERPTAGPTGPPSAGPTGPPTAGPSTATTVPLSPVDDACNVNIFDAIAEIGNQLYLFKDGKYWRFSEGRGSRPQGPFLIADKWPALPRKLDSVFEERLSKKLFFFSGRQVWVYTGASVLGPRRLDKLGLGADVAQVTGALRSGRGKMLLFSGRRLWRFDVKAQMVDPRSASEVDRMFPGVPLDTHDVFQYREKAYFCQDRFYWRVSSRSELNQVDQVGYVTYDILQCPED
smiles,measurement,setting,value
"C[C@@H]1CCO[C@H]2Cn3cc(C(=O)NCc4ccc(F)cc4F)c(=O)c(O)c3C(=O)N12 [DTG, Dolutegravir]",inhibitory effect compared to doxycycline,"MMP-9, 20 µM",higher inhibitory effect
same,IC50,"human recombinant MMP-9, 60 min preincubation, four-parameter fit",11.1 µM
